Patent US11766429B1, “Nicotinic receptor antagonists and pioglitazone as therapeutic agents for Covid-19” (priority 2020, dated 2023)

What was measured:
[1] = system: human α3β4, α4β2, α3β2 and α7 receptors; conditions: cited from earlier work; for mode of inhibition: neuronal nAChRs; for selectivity between nAChR types: neuronal vs muscle-type nAChRs
[2] = in vivo; cited from earlier work
[3] = higher doses (30-90 mg/day); cited from earlier work
[4] = system: inflammatory cytokines IL-6, IL-1β, and TNFα; assay: SARS-CoV-2 induced cytokine gene expression in Calu3 cells; format: cell-based; conditions: 0.1 MOI SARS CoV2, single agent: PG 20 μM, Mec 5 μM or Mec iso 5 μM, 48 hrs
[5] = system: mouse hepatitis virus strain 4 (MHV4); assay: MHV4 replication in infected IMG cells (GFP expression, N gene qPCR); format: cell-based; conditions: 2 MOI MHV4, mecamylamine 1, 10 or 40 μM, 48 hours
[6] = system: inflammatory cytokine gene expression (IL1-β, IL-6, TNF-α); assay: Inflammatory cytokine gene expression in MHV4 infected IMG cells; format: cell-based; conditions: 2 MOI MHV4, mecamylamine 1, 10 or 40 μM, 48 hours

SMILES | mode of inhibition [1] | selectivity between nAChR types [1] | blood brain barrier penetration [2] | side effects [3] | inflammatory cytokines IL-6, IL-1β, and TNFα [4] | GFP expressing cells [5] | MHV-4 N-gene expression [5] | cytokine gene transcription (qPCR) [6]
CN[C@@]1(C)[C@@H]2CC[C@@H](C2)C1(C)C [S-(+)-mecamylamine] | noncompetitive inhibitors | selective for neuronal nAChRs over muscle-type nAChRs |  |  |  |  |  | 
CNC1(C)C2CCC(C2)C1(C)C (racemic) [mecamylamine] |  | selective for neuronal nAChRs over muscle-type nAChRs | ability to cross the blood brain barrier | causes unfavorable side effects | significant decrease | dose-dependent decrease | dose-dependent decrease | dose-dependent decrease
CNC1(C)C2CCC(C2)C1(C)C (stereo not drawn) [R-(−)-mecamylamine] | noncompetitive inhibitors | selective for neuronal nAChRs over muscle-type nAChRs |  |  |  |  |  | 
